This is an account of results in US20240263146A1, “HUMAN NSCLC CELL LINES AND USES THEREOF” (SHANGHAI LIDE BIOTECH CO., LTD., priority 2020, published 2024).

Experiment in all cases: cells
For experiment [1], the system named is LD1-0006-215676 (EGFR L858R/T790M) cell line. The conditions noted are these: Homo sapiens, 144 h. The protocol: (§1) The cell lines of the present disclosure (i.e., LD1-0025-200636; LD1-0025-200694; LD1-0006-215676; and LD1-0025-200717) were seeded at 2×10^2 cells/well to 96 well round bottom ultra low attachment plate. The drugs were added into the cell lines and the cells were cultured in 37° C. and 5% CO2 for 6 days. The ATP amount was measured using CellTiter-Glo. The Inhibition rate corresponding to the concentration of the drugs was calculated. The equation for calculating the inhibition rate is as follows: […]
(§2) Inhibition curve was graphed by XLfit(IDBS) and IC50 was calculated.

Experiment [2] deals with LD1-0025-200694 (EGFR L858R) cell line. The conditions noted are these: Homo sapiens, 144 h. The protocol:
as §1, §2

Experiment [3] relates to LD1-0025-200717 (EGFR 19del, T790M & C797S mutant) cell line. The settings on record: Homo sapiens, LD1-0025-200717, 144 h. The protocol: as §1, §2
The test system of experiment [4] is LD1-0025-200636 (EGFR WT) cell line. The conditions noted are these: Homo sapiens, 144 h. The method, then:
as §1, §2

On to `C=CC(=O)Nc1cc(Nc2nccc(-c3cn(C)c4ccccc34)n2)c(OC)cc1N(C)CCN(C)C` [AZD9291, Osimertinib], for which the IC50 amounted to 30 nM in experiment [1], 2670 nM in experiment [2], 2010 nM in experiment [3] and 2520 nM in experiment [4].
